{"source": "patent US8951527B2", "about": "“Radioprotectants targeting thrombospondin-1 and CD47” (The United States of America, as represented by the …, priority 2008, dated 2015)", "key": {"C57BL/6 mice": {"system": "C57BL/6 mice", "test": "Laser Doppler hind limb blood flow after NO challenge, 8 weeks post-radiation", "assay_type": "in vivo, mouse", "details": "intramuscular 10 μM 48 hours before 25 Gy, 8 weeks post-injury", "experimental": "FIG. 18. Targeting CD47 Protects Composite Tissue From Radiation-Induced Vascular Damage. Age matched male C57BL/6 mice received 25 Gy to both hind limbs. Forty-eight hours prior to irradiation the right hind limb was treated by direct intra-muscular injection with the CD47 morpholino (750 μl at 10 μM concentration). The opposite (control) limb received nothing. Eight weeks post-radiation hind limb blood flow changes to a nitric oxide (NO) challenge (DEA/NO 100 nmol/g body weight via rectal instillation) was assessed via Laser Doppler imaging (FIG. 18A). In other experiments, the opposite (control) limb received injection of either missense oligonucleotide or sterile PBS with similar results (not shown). Laser Doppler was performed under 1.5% isoflurane inhalation anesthesia with animal core temperature held constant at 36.5° C. […]\nLaser Doppler analysis: Hind limb flow was measured using laser Doppler imaging (MoorLD1-2λ, Moor Instruments, Devon, England). […] Core temperature was monitored by rectal probe and was further controlled with a heat lamp. […] After equilibration to the experimental set-up baseline, hind limb blood flow was measured. […] Results are expressed as the change percent control from baseline of the ROI.\nLaser Doppler Analysis: Hind limb blood flow was measured using laser Doppler imaging as described above. […]"}, "HUVEC": {"system": "HUVEC", "test": "HUVEC proliferation post-radiation (BrdU incorporation)", "assay_type": "cell-based, human", "details": "treated 48 hours before 10 Gy, over 1 week (FIG. 14)", "experimental": "FIG. 14. TSP1 and CD47 antibodies or antisense suppression of CD47 maintain proliferation of irradiated HUVEC. HUVEC were plated in 96-well plates in growth medium and treated with CD47 morpholino (FIG. 14A; *p<0.05, #p<0.01) TSP1, or CD47 antibodies (FIG. 14B; *p<0.05, #p<0.01) and exposed to 10 Gy irradiation 48 hours later. Cell proliferation at the indicated times post-radiation was determined by intracellular BrdU incorporation. Experiments were repeated 3 times, and results presented as the mean±SD.\nFIG. 15. HUVEC protected by radioprotective agents are both viable and proliferate at a better rate than untreated cells in culture. Proliferation was assessed by quantifying incorporation of bromodeoxyuridine (BrdU) into newly synthesized DNA using a BrdU Cell Proliferation Assay. HUVEC were seeded into 96 well plates for 24 hours at 37° C., then treated with either antibody A6.1 or B6H12 or peptide 7N3. The treated cells were irradiated at 40 Gy 1 hour later. Control and irradiated plates were assayed for BrdU uptake over 96 hours post-radiation. The assay was performed according to the manufacturer's protocol, and the plates were read at 420 nm.\nCell proliferation assay: Proliferation was assessed by quantifying incorporation of bromodeoxyuridine (BrdU) into newly synthesized DNA using a BrdU Cell Proliferation Assay (Calbiochem, La Jolla, Calif.). Primary murine wild type, TSP1, TSP2, and CD47 null lung endothelial cells were seeded into 96 well plates at 5×10^4 cells/well density. After 24 hours incubation at 37° C. treatment groups were irradiated at 40 Gy. Control and irradiated plates were assayed for BrdU uptake over 24 hours starting at 48 to 168 hours post-radiation. The assay was performed according to the manufacturer's protocol, and the plates were read at 420 nm.\nProliferative capacities were also determined in endothelial cells exposed to high doses of radiation of 40 Gy. […] The assay was performed according to the manufacturer's protocol, and the plates were read at 420 nm."}}, "data": [{"sequence": "CGTCACAGGCAGGACCCACTGCCCA (all phosphorodiamidate morpholino (PMO)) [CD47 morpholino, CD47 targeting morpholino oligonucleotide]", "values": [{"measurement": "vascular perfusion in response to DEA/NO challenge (laser Doppler)", "setting": "C57BL/6 mice", "value": "enhanced vascular perfusion"}, {"measurement": "proliferation (BrdU incorporation / DNA synthesis) after 10 Gy", "setting": "HUVEC", "value": "maintained proliferation"}]}]}
